Reference: ChEMBL document CHEMBL1127932, “6-isoxazolinyl and isoxazolidinyl substituted quinazolinones as angiotensin II receptor antagonists” (Bioorg Med Chem Lett, 1994)

The molecules below were run on Rattus norvegicus (assay: Percent inhibition of AII vasopressor response in SHR at 5 mg/kg of oral dose after 5 hr in hypertensive rats). Details: not given.
Format: functional

| SMILES | inhibition in vivo at 5 mg/kg |
| --- | --- |
| CCCCc1nc(Cl)c(CO)n1Cc1ccc(-c2ccccc2-c2nnn[nH]2)cc1 [LOSARTAN] | 50% |

Each molecule was assayed against T1, Type-1 angiotensin II receptor (Bos taurus, UniProt P25104) (assay: In vitro Angiotensin II receptor antagonism in bovine adrenal cortex tissue.). Details: not given.
T1 sequence (P25104 whole entry): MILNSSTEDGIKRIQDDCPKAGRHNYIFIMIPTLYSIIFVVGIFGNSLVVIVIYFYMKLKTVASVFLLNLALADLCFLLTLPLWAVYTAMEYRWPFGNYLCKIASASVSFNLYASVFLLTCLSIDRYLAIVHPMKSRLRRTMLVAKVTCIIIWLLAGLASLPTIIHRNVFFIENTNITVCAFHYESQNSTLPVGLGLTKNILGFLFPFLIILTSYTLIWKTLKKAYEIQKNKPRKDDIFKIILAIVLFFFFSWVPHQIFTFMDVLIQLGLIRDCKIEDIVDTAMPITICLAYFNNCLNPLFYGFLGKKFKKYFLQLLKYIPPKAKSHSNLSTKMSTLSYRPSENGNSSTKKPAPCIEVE
Format: functional, tissue-based

| SMILES | IC50 |
| --- | --- |
| CCCCc1nc2ccc([C@@]3(C)C[C@H]4CCC(C)(C)N4O3)cc2c(=O)n1Cc1ccc(-c2ccccc2-c2nnn[nH]2)cc1 | 70 nM |
| CCCCc1nc2ccc(C3(C(=O)N4CCCC4)C[C@H]4CCCN4O3)cc2c(=O)n1Cc1ccc(-c2ccccc2-c2nnn[nH]2)cc1 (stereo not given in full) | 69 nM |
| CCCCc1nc2ccc(C3CC(c4cc(C)cs4)=NO3)cc2c(=O)n1Cc1ccc(-c2ccccc2-c2nnn[nH]2)cc1 (stereo not given) | 410 nM |
| CCCCc1nc2ccc(C3(C(=O)N4CCCCC4)C[C@H]4CCCN4O3)cc2c(=O)n1Cc1ccc(-c2ccccc2-c2nn[nH]n2)cc1 (stereo not given in full) | 61 nM |
| CCCCc1nc2ccc([C@@]3(C)C[C@H]4CCCN4O3)cc2c(=O)n1Cc1ccc(-c2ccccc2-c2nn[nH]n2)cc1 | 55 nM |
| CCCCc1nc2ccc(C3(C)CC(C(=O)OCC)=NO3)cc2c(=O)n1Cc1ccc(-c2ccccc2-c2nn[nH]n2)cc1 (stereo not given) | 140 nM |
| CCCCc1nc2ccc([C@]3(C(=O)N(C)C)C[C@H]4CCCN4O3)cc2c(=O)n1Cc1ccc(-c2ccccc2-c2nnn[nH]2)cc1 | 57 nM |
| CCCCc1nc2ccc([C@]3(c4ccccc4)C[C@H]4CCCN4O3)cc2c(=O)n1Cc1ccc(-c2ccccc2-c2nnn[nH]2)cc1 | 56 nM |
| CCCCc1nc2ccc(C3CC(c4cc(C)co4)=NO3)cc2c(=O)n1Cc1ccc(-c2ccccc2-c2nnn[nH]2)cc1 (stereo not given) | 180 nM |
| CCCCc1nc2ccc([C@H]3ON4CCCC4C3C(=O)OCC)cc2c(=O)n1Cc1ccc(-c2ccccc2-c2nn[nH]n2)cc1 (stereo not given in full) | 69 nM |
| CCCCc1nc2ccc([C@]3(C)C[C@H]4CCC(C)(C)N4O3)cc2c(=O)n1Cc1ccc(-c2ccccc2-c2nnn[nH]2)cc1 | 65 nM |
| CCCCc1nc2ccc([C@@]3(CC)C[C@H]4CCCN4O3)cc2c(=O)n1Cc1ccc(-c2ccccc2-c2nnn[nH]2)cc1 | 58 nM |
| CCCCc1nc2ccc([C@@H]3C[C@H]4CCC(C)(C)N4O3)cc2c(=O)n1Cc1ccc(-c2ccccc2-c2nnn[nH]2)cc1 | 39 nM |
| CCCCc1nc2ccc([C@]3(C(=O)OC)C[C@H]4CCCN4O3)cc2c(=O)n1Cc1ccc(-c2ccccc2-c2nnn[nH]2)cc1 | 79 nM |
| CCCCc1nc2ccc([C@]3(C(=O)O)C[C@H]4CCCN4O3)cc2c(=O)n1Cc1ccc(-c2ccccc2-c2nnn[nH]2)cc1 | 46 nM |
| CCCCc1nc2ccc([C@]3(CO)C[C@H]4CCCN4O3)cc2c(=O)n1Cc1ccc(-c2ccccc2-c2nnn[nH]2)cc1 | 35 nM |
| CCCCc1nc2ccc([C@@H]3C[C@@]4(C)CCCCN4O3)cc2c(=O)n1Cc1ccc(-c2ccccc2-c2nn[nH]n2)cc1 | 65 nM |
| CCCCc1nc2ccc([C@]3(C)C[C@H]4CCCN4O3)cc2c(=O)n1Cc1ccc(-c2ccccc2-c2nn[nH]n2)cc1 | 27 nM |
| CCCCc1nc2ccc([C@]3(CC)C[C@H]4CCCN4O3)cc2c(=O)n1Cc1ccc(-c2ccccc2-c2nnn[nH]2)cc1 | 83 nM |
| CCCCc1nc2ccc([C@@H]3C[C@H]4CCCN4O3)cc2c(=O)n1Cc1ccc(-c2ccccc2-c2nnn[nH]2)cc1 | 32 nM |
| CCCCc1nc2ccc(C3CC(C(=O)O)=NO3)cc2c(=O)n1Cc1ccc(-c2ccccc2-c2nn[nH]n2)cc1 (stereo not given) | 500 nM |
| CCCCc1nc2ccc(C(C)(C)OC)cc2c(=O)n1Cc1ccc(-c2ccccc2-c2nn[nH]n2)cc1 [CL-329167] | 31 nM |
| CCCCc1nc(Cl)c(CO)n1Cc1ccc(-c2ccccc2-c2nnn[nH]2)cc1 [LOSARTAN] | 330 nM |

These molecules were tested on Rattus norvegicus (assay: In vivo change in mean arterial blood pressure in conscious renin-dependent […] hypertensive rats at 1 mg/kg, p.o. after 2 hr). Details: route oral.
Format: functional

| SMILES | Activity |
| --- | --- |
| CCCCc1nc2ccc([C@]3(C)C[C@H]4CCCN4O3)cc2c(=O)n1Cc1ccc(-c2ccccc2-c2nn[nH]n2)cc1 | -5.5 mmHg |

These molecules were tested on Rattus norvegicus (assay: In vivo change in mean arterial blood pressure in conscious renin-dependent […] hypertensive rats at 1 mg/kg, p.o. after 30 min). Details: route oral.
Format: functional

| SMILES | Activity |
| --- | --- |
| CCCCc1nc2ccc([C@]3(C)C[C@H]4CCCN4O3)cc2c(=O)n1Cc1ccc(-c2ccccc2-c2nn[nH]n2)cc1 | -3 mmHg |

Each molecule was assayed against T2, Angiotensin II receptor (Rattus norvegicus, UniProt P29089+P25095+P35351) (assay: In vitro Angiotensin II receptor antagonist activity in rat adrenal cortex tissue.). Details: not given.
T2 sequence (P29089 whole entry): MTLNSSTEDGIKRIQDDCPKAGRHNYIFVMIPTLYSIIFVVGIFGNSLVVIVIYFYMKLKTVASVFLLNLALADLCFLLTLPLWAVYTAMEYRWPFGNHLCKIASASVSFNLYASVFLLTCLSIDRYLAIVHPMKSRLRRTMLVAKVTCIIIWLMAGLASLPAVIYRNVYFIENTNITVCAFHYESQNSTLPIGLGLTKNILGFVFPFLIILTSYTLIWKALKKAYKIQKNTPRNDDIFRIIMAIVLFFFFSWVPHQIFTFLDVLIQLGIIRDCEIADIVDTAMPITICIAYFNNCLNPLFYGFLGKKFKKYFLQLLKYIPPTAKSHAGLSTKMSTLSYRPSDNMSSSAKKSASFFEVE
T2 sequence (P25095 whole entry): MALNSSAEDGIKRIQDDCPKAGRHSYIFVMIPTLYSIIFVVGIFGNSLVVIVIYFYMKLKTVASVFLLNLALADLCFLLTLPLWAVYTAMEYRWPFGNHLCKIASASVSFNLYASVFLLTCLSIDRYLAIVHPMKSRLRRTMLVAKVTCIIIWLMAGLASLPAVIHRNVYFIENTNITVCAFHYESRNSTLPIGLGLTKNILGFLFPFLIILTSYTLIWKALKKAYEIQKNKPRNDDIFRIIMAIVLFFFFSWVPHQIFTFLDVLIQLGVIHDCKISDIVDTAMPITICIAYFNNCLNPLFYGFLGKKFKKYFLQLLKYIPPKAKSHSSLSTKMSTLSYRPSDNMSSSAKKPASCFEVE
T2 sequence (P35351 whole entry): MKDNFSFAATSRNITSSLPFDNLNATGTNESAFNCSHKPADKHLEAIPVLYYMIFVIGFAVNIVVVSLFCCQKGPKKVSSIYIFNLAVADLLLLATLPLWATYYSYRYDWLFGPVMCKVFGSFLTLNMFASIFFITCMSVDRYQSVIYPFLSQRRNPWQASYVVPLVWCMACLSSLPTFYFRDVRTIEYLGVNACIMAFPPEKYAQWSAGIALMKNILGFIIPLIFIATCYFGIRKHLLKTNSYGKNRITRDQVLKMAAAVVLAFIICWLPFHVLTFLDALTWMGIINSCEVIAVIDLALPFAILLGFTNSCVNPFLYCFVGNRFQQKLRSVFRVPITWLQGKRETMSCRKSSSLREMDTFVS
Format: functional, tissue-based

| SMILES | IC50 |
| --- | --- |
| CCCCc1nc2ccc(C3CCCO3)cc2c(=O)n1Cc1ccc(-c2ccccc2-c2nn[nH]n2)cc1 (stereo not given) | 11 nM |
| CCCCc1nc2ccc(C3C=CCO3)cc2c(=O)n1Cc1ccc(-c2ccccc2-c2nn[nH]n2)cc1 (stereo not given) | 5 nM |
| CCCCc1nc2ccc(-c3ccco3)cc2c(=O)n1Cc1ccc(-c2ccccc2-c2nn[nH]n2)cc1 | 47 nM |
| CCCCc1nc2ccc(-c3cccs3)cc2c(=O)n1Cc1ccc(-c2ccccc2-c2nn[nH]n2)cc1 | 44 nM |
